These results are taken from patent US20150166646A1, “Methods and Compositions for Treating or Diagnosing Melanoma” (The Wistar Institute of Anatomy and Biology, priority 2012, published 2015).

In one experiment the test system is macrophages. Kind of experiment: Macrophage growth (WST-1) and cell death. The experiment is classed as cell-based, human. As to conditions: 3 μM, 72 hours.
In the next experiment the test system is 1205Lu melanoma cells. Put plainly: Matrigel Transwell invasion assay with 1205Lu-MΦ conditioned medium. It counts as cell-based, human. As to conditions: anti-CCL2 10 μg/ml. The procedure: The invasion assay was conducted with 24-well Transwell inserts (8 μm pore size; Corning). For the MCMI-MΦ-induced invasion assay, 4×10^5 1205Lu melanoma cells in 2% FBS RPMI1640 medium were added in the upper chamber precoated with 50 μl Matrigel (1:3 dilution, BD Biosciences). Media from 1205Lu-MΦ were added to the lower chamber, and R10 medium was used as a control. After overnight incubation, cells that had invaded
were fixed and stained with Diff-Quick staining kit (ThermoFisher). The stained cells in 4 randomly chosen fields were counted for each insert (200×). […]
We used a Matrigel Transwell assay and compared invasion of melanoma cells attracted to the supernatant of 1205Lu-MΦ alone or the supernatant with an anti-CCL2 monoclonal antibody and a pan-MMPs inhibitor GM6001 (see FIG. 7; see also FIG. 4(A)-(E) of Reference 11).

The test system of experiment [1] is peritoneal F4/80 positive macrophages. Put plainly: Flow cytometric analysis of peritoneal macrophages of treated xenograft mice. The experiment is classed as in vivo. As to conditions: day 14.
For experiment [2], the system named is 1205Lu xenograft tumor tissues. Kind of experiment: Immunohistochemistry of xenograft tumors (F4/80, phospho-ERK, Ki67). The experiment is classed as in vivo, mice. As to conditions: for Ki67 positive cells in tumor tissues / signaling of phospho-ERK in tumor tissues: compared to control mice; for F4/80 positive macrophages in tumors: day 14.
Experiment [3] concerns 1205Lu and A375 melanoma cells. Put plainly: Melanoma cell growth (WST-1) and cell death (Annexin V/7-AAD), cells cultured alone. The experiment is classed as cell-based, human.
The test system of experiment [4] is melanoma cells co-cultured with macrophages. Kind of experiment: Melanoma/macrophage transwell co-culture: growth (WST-1) and cell death. It counts as cell-based, human. As to conditions: for macrophage-mediated resistance of melanoma cells to BRAFi (cell growth, anti-cell death effect): co-culture with macrophages in presence of PLX4720, 3 days.
For experiment [5], the system named is 1205Lu. Put plainly: Western blot of 1205Lu cells treated with PLX4720, GW2580, soluble M-CSFR with or without MCMI-Mφ. It counts as cell-based, human. As to conditions: 10 μM, 3 days, without MCMI-Mφ.
The subject of another experiment is 1205Lu xenograft. Put plainly: 1205Lu xenograft tumor growth in nude mice. It counts as in vivo. The method, then:
5×10^5 1205Lu cells were subcutaneously injected to Nude mice (Female, 8 weeks old).
Tumor size was measured by a caliper. Tumor volume was calculated by the formula: Volume width×wide×length/2. The results are shown in the plot of FIG. 12A, plotting tumor volume vs. day.
Tumors from the experiment described immediately above were extracted and weighted after mice were euthanized. Tumor weight in grams was plotted vs. control or an agent defined along the x axis of FIG. 22A.
All studies were conducted under IACUC guidelines. 7 weeks old BALB/c female nude mice (National Cancer Institute) were injected subcutaneously with 1×10^61205Lu cells in 50% Matrigel (BD Biosciences) in both flanks of mice. When xenografts reached volumes of approximately 100 mm^3, mice were randomly grouped to four groups, with 5 animals per group. GW2580 was dissolved in 0.5% hydroxypropylmethylcellulose (Sigma-Aldrich, MO, USA) and 0.1% Tween 80, and was dosed orally at 160 mg/Kg once daily. […] Tumor volumes were measured every three days using a digital caliber and were calculated using the equation V=0.5×L×W^2. Mice tumors were weighted after mice were euthanized.
1205Lu cells were injected s.c into both flanks of nude mice. […] ANOVA was used to compare the differences in tumor volume. Mice were euthanized on day 14, peritoneal cells were harvested for flow cytometric analysis of the percent of F4/80 positive macrophages. Immunohistochemistry analysis of the expression of F4/80, phospho-ERK and Ki67 in tumors was conducted. The results are shown in FIGS. 12A-E. See, also the data in FIGS. 3B and 3C

The subject of experiment [6] is VEGF production in macrophages. Kind of experiment: Intracellular staining for VEGF production in macrophages. As to conditions: 4 hours.
Experiment [7] concerns MAPK pathway in macrophages. Kind of experiment: Immunoblotting of MAPK signaling in macrophages. The experiment is classed as cell-based, human. As to conditions: 2 hours; accompanied by phosphorylation of CRAF. The procedure:
For macrophages, after monocytes were differentiated to the macrophages, cells in 2% FBS melanoma media were seeded into 15 ml tubes. […] Immunoblotting were performed as described previously. The following antibodies were used: anti-phospho-ERK, ERK, Phospho-VEGFR1, phospho-CRAF, CRAF, PCNA, HSP90 and Rab11.
Cells were harvested for immunoblotting of antibodies to pERK (short expression), pERK, ERK, pCRAF (S338), CRAF, and Rab11 as shown in FIG. 11A. An ELISA assay was performed to determine the activation of RAS in 3 macrophage donors and the melanoma cells A375 and 1205Lu. As see in FIG. 11B, macrophages have high basal level of RAS activation.

In experiment [8] the test system is 1205Lu. Kind of experiment: Western blot for cPARP in 1205Lu cells. It counts as cell-based, human. As to conditions: PLX4720 1, 3, 10 μM, 2 days, with or without macrophages.
In experiment [9] the test system is MAPK pathway (pERK) in melanoma cells. Kind of experiment: Immunoblotting of MAPK signaling in melanoma cells. Conditions: VEGF 10 ng/ml and PLX4720 1 μM, 4 hours. The experiment is classed as cell-based, human. The procedure:
Macrophages and melanoma co-culture system was set up as described above. Melanoma cells were cultured same as Proliferation assay for 6 hours and were harvested for Immmunoblotting with following antibodies: phspho-ERK, total ERK, HSP90, phosphor-AKT, AKT, phosphor-NF-κB, phospho-CRAF, total CRAF, Phospho-ARAF, RAB11, Vinculin.
Cells were harvested for immunoblotting with antibodies to pERK, ERK, HSP90. VEGF increases the activation of MAPK pathway (FIG. 10C).
Relative cell growth and cell death were determined as above.

Consider `CC(C)(C)c1nc(-c2cccc(NS(=O)(=O)c3c(F)cccc3F)c2F)c(-c2ccnc(N)n2)s1` [Dabrafenib], for which the “macrophage apoptosis / cell death” value in the experiment with macrophages was “protects macrophage from cell death”.
As to `CNC(=O)[C@H](Cc1c[nH]c2ccccc12)NC(=O)[C@@H](CC(=O)NO)CC(C)C` [GM6001], in the experiment on 1205Lu melanoma cells (GM6001 10 μM, Matrigel Transwell), the “1205Lu-MΦ supernatant induced melanoma invasion” value is recorded as “did not have a significant effect”. Further, in the experiment on 1205Lu melanoma cells (MMPi 5 μM, 18 h, 1205Lu-MΦ CM), the “melanoma cell invasion (FIG. 7)” value is on record as “marginally increased melanoma cell invasion”.
As to `COc1ccc(COc2ccc(Cc3cnc(N)nc3N)cc2OC)cc1` [GW2580, 5-(3-methoxy-40((4-methoxybenzyl)oxy)benzyl)pyrimidine-2,4-diamine], the “numbers of peritoneal F4/80 positive macrophages” value in experiment [1] is reported as “significant decrease”. In addition, in [2], the “Ki67 positive cells in tumor tissues” value is “fewer”, the “signaling of phospho-ERK in tumor tissues” value is recorded as “decreased signaling” and the “F4/80 positive macrophages in tumors” value was “abolished”. Further, the “melanoma growth and death in vitro” value in experiment [3] (GW2580 alone, 72 hours) is recorded as “did not have significant effects”. In addition, the “macrophage-mediated resistance of melanoma cells to BRAFi (cell growth, anti-cell death effect)” value in experiment [4] is reported as “can reverse macrophage-mediated resistance”. Also, the “expression of pERK, pAKT, pS6, pRSK90 (Western blot)” value in the experiment on 1205Lu [5] is “all blots appear similar to col. 4”. The “efficacy compared with PLX4720 alone” value in the experiment with 1205Lu xenograft (14 days, GW2580 160 mg/kg vs PLX4720) is listed as “less efficacious than PLX4720”. In addition, the “tumor size / tumor growth” value in the experiment with 1205Lu xenograft (after 14 days of oral treatment, GW2580 160 mg/kg, PLX4720 30 mg/ml as printed) is listed as “significantly decreased tumor size”. Further, the “effect on anti-tumor activity of PLX4720 on 1205Lu xenograft tumor growth (FIG. 12A)” value in the experiment with 1205Lu xenograft (oral, 14 days) was “increases anti-tumor activity of PLX4720”.
For the molecule `COc1cc2nccc(Oc3ccc(NC(=O)NC4CC4)c(Cl)c3)c2cc1C(N)=O` [Lenbatinib], the “macrophage-mediated resistance of melanoma cells to BRAFi (cell growth, anti-cell death effect)” value in [4] is “reverse macrophage-mediated resistance”.
With `CCCS(=O)(=O)Nc1ccc(F)c(C(=O)c2c[nH]c3ncc(Cl)cc23)c1F` [PLX4720], the “numbers of peritoneal F4/80 positive macrophages” value in experiment [1] is reported as “amplified this effect”. For the same molecule, in [2], the “Ki67 positive cells in tumor tissues” value is “fewer”, the “signaling of phospho-ERK in tumor tissues” value is recorded as “decreased signaling” and the “F4/80 positive macrophages in tumors” value was “significant decrease”. The “BRAFi-induced growth inhibition and cell death of melanoma cells when co-cultured with macrophages” value in [4] (0-10 μM, 3 days, 1205Lu, A375, SK-MEL-28, 451Lu) was “significantly protected from PLX4720-induced growth inhibition and cell death”. Further, the “macrophage apoptosis / cell death” value in the experiment on macrophages is reported as “protects macrophage from apoptosis”. Further, the “production of VEGF in macrophages” value in experiment [6] is “significantly increased”. Moreover, the “MAPK signaling in macrophages” value in experiment [7] is “strongly activated”. The “cPARP gel (Western blot)” value in the experiment on 1205Lu [8] is “showed a second blot”.
In the case of VEGF, the “rescue of PLX4720-induced cell growth inhibition” value in experiment [3] (VEGF 10 ng/ml with PLX4720, 3 days) was “rescued PLX4720-induced cell growth inhibition”. Besides, the “MAPK pathway in melanoma cells” value in experiment [9] is “activated the MAPK pathway”.
Turning to m-CSFR: soluble M-CSFR, the “expression of pERK, pAKT, pS6, pRSK90 (Western blot)” value in the experiment with 1205Lu [5] is reported as “no change from control”.
